According to publication PMC2766634 (Journal of medicinal chemistry, 2009):
Where “and” joins values, the source holds several entries; their conditions need not be identical. Equal values may be shown once. Marks after values point to notes of the source that are not given here.

How the values were obtained:
[1] = tested on: G. lamblia (WB/C6, GS/M, 106, and 713); experiment: Antigiardial growth inhibition; format: cell-based, Giardia lamblia; settings: for selectivity ratio, IC50/EC50: IC50 in HeLa cells / EC50 in Giardia
[2] = Cyclic voltammetry in DMSO; format: physicochemical; settings: for E1/2 in DMSO (half-wave potential, 0/−1 reduction), mean ± SE: cyclic voltammetry, 0.10 M NBu4PF6 in DMSO, 25 °C, 100 mV/s; for E1/2 more positive than Mz: in DMSO, relative to Mz
HeLa cells = experiment: Cytotoxicity assay; format: cell-based, human; settings: for IC50: Homo sapiens, HeLa, 48 h, read-out: toxicity in HeLa cells, pIC50 (mean ± SE) (converted)
[3] = Cyclic voltammetry in water pH 7.0; format: physicochemical; settings: pH 7.0 phosphate buffer, 0.1 M KCl, 25 °C
G. lamblia GS/M = experiment: Murine G. lamblia infection model; format: in vivo, Giardia lamblia in C57BL/6 mice; settings: mice, five doses over 3 days; for effect on infection (trophozoites in small intestine) at 2 mg/kg: 2 mg/kg oral gavage; for effect on infection (trophozoites in small intestine) at 10 mg/kg: 10 mg/kg oral gavage

Compound	E1/2 in DMSO (half-wave potential, 0/−1 reduction), mean ± SE [2]	Ep in water (peak potential), mean ± SE [3]	also measured
Cc1ccc(C(Br)C(Br)c2ncc([N+](=O)[O-])n2C)cc1 (stereo not shown) [compound 3, reference compound]	−1.489 ^d ± 0.001 V vs Fc	–	increased antigiardial activity over Mz ([1]; relative to Mz): 40 fold; selectivity ratio lower than that of Mz ([1]; relative to Mz): > 10 fold; more toxic than Mz in HeLa (HeLa cells; relative to Mz): > 500 fold
Cn1c([N+](=O)[O-])cnc1/C=C/c1ccc2ccccc2c1 [compound 26, 1-Methyl-2-[(E)-2-(2-naphthyl)vinyl]-5-nitro-1H-imidazole]	−1.509 ± 0.001 V vs Fc	–	selectivity ratio, IC50/EC50 [1]: 1,622; IC50 (HeLa cells): 97.7 µM
Cn1c([N+](=O)[O-])cnc1/C=C/c1ccc(Cl)cc1Cl [compound 16, 2-[(E)-2-(2,4-Dichlorophenyl)vinyl]-1-methyl-5-nitro-1H-imidazole]	−1.469 ± 0.002 V vs Fc	–	E1/2 more positive than Mz [2]: ~ 90 mV
Cn1c([N+](=O)[O-])cnc1/C=C/c1ccccc1-c1ccccc1 [compound 24, 2-[(E)-2-Biphenyl-2-ylvinyl]-1-methyl-5-nitro-1H-imidazole]	−1.512 ± 0.001 V vs Fc	–	–
Cn1c([N+](=O)[O-])cnc1/C=C/c1ccsc1 [compound 31, 1-Methyl-5-nitro-2-[(E)-2-(3-thienyl)vinyl]-1H-imidazole]	−1.508 ± 0.002 V vs Fc	−0.595 ± 0.001 V vs SCE	selectivity ratio, IC50/EC50 [1]: >1,023
Cn1c([N+](=O)[O-])cnc1/C=C/c1cccc(F)c1 [compound 19, 2-[(E)-2-(3-Fluorophenyl)vinyl]-1-methyl-5-nitro-1H-imidazole]	−1.502 ± 0.001 V vs Fc	−0.613 ± 0.008 V vs SCE	effect on infection (trophozoites in small intestine) at 2 mg/kg (G. lamblia GS/M): significant activity; effect on infection (trophozoites in small intestine) at 10 mg/kg (G. lamblia GS/M): complete clearance of the infection
Cn1c([N+](=O)[O-])cnc1/C=C/c1ccc(Br)cc1 [compound 12, 2-[(E)-2-(4-Bromophenyl)vinyl]-1-methyl-5-nitro-1H-imidazole]	−1.506 ± 0.002 V vs Fc	−0.605 ± 0.007 V vs SCE	effect on infection (trophozoites in small intestine) at 2 mg/kg (G. lamblia GS/M): no significant activity; effect on infection (trophozoites in small intestine) at 10 mg/kg (G. lamblia GS/M): no significant activity
Cc1ccc(CCc2ncc([N+](=O)[O-])n2C)cc1 [compound 41, 1-Methyl-2-[2-(4-methylphenyl)ethyl]-5-nitro-1H-imidazole]	−1.592 ± 0.003 V vs Fc	–	–
COc1cccc(/C=C/c2ncc([N+](=O)[O-])n2C)c1 [compound 20, 2-[(E)-2-(3-Methoxyphenyl)vinyl]-1-methyl-5-nitro-1H-imidazole]	−1.580 ± 0.007 V vs Fc	−0.763 ± 0.001 V vs SCE	–
Cc1ccccc1/C=C/c1ncc([N+](=O)[O-])n1C [compound 6, 1-Methyl-2-[(E)-2-(2-methylphenyl)vinyl]-5-nitro-1H-imidazole]	−1.512 ± 0.001 V vs Fc	−0.621 ± 0.001 V vs SCE	IC50 (HeLa cells): 93.3 µM
Cc1ccc(/C=C/c2ncc([N+](=O)[O-])n2C)cc1 [compound 8, 1-Methyl-2-[(E)-2-(4-methylphenyl)vinyl]-5-nitro-1H-imidazole]	−1.522 ± 0.003 V vs Fc	–	selectivity ratio, IC50/EC50 [1]: >617
Cn1cncc1[N+](=O)[O-] [1-methyl-5-NI, reference compound]	−1.557 V vs Fc and −1.557 ± 0.001 V vs Fc	–	–
Cn1c([N+](=O)[O-])cnc1C(Br)C(Br)c1ccc(Br)cc1 (stereo not shown) [compound 33, 2-[1,2-Dibromo-2-(4-bromophenyl)ethyl]-1-methyl-5-nitro-1H-imidazole]	−1.493 ^d ± 0.004 V vs Fc	–	–
Cn1c([N+](=O)[O-])cnc1/C=C/c1cccc2ccccc12 [compound 25, 1-Methyl-2-[(E)-2-(1-naphthyl)vinyl]-5-nitro-1H-imidazole]	−1.502 ± 0.004 V vs Fc	–	selectivity ratio, IC50/EC50 [1]: 1,000
Cc1ncc([N+](=O)[O-])n1CCO [Mz, metronidazole, reference compound]	–	–	effect on infection (trophozoites in small intestine) at 2 mg/kg (G. lamblia GS/M): no significant effect; effect on infection (trophozoites in small intestine) at 10 mg/kg (G. lamblia GS/M): not parasite eradication
Cn1c([N+](=O)[O-])cnc1/C=C/c1ccccc1Cl [compound 13, 2-[(E)-2-(2-Chlorophenyl)vinyl]-1-methyl-5-nitro-1H-imidazole]	−1.486 ± 0.004 V vs Fc	–	–
Cn1c([N+](=O)[O-])cnc1/C=C/c1ccccc1Br [compound 10, 2-[(E)-2-(2-Bromophenyl)vinyl]-1-methyl-5-nitro-1H-imidazole]	−1.481 ± 0.001 V vs Fc	–	–

Compound	E1/2 in DMSO (half-wave potential, 0/−1 reduction), mean ± SE [2]	Ep in water (peak potential), mean ± SE [3]	also measured
CC(=O)OC(c1ccc(Br)cc1)C(OC(C)=O)c1ncc([N+](=O)[O-])n1C (stereo not shown) [compound 37, 1-(1-Methyl-5-nitro-1H-imidazol-2-yl)-2-(4-bromophenyl)-ethane-1,2-diyl Diacetate]	–	–	IC50 (HeLa cells): 97.7 µM
Cn1c([N+](=O)[O-])cnc1/C=C/c1ccc(Cl)cc1 [compound 15, 2-[(E)-2-(4-Chlorophenyl)vinyl]-1-methyl-5-nitro-1H-imidazole]	−1.503 ± 0.001 V vs Fc	−0.584 ± 0.001 V vs SCE	–
Cn1c([N+](=O)[O-])cnc1/C=C/c1ccc(OC(F)(F)F)cc1 [compound 21, 1-Methyl-5-nitro-2-{(E)-2-[4-(trifluoromethoxy)phenyl]vinyl}-1H-imidazole]	−1.487 ± 0.001 V vs Fc	–	–
Cc1ccc(C(O)C(O)c2ncc([N+](=O)[O-])n2C)cc1 (stereo not shown) [compound 34, 1-(1-Methyl-5-nitro-1H-imidazol-2-yl)-2-(4-methylphenyl)-ethane-1,2-diol]	−1.557 ± 0.001 V vs Fc	–	–
Cc1cccc(/C=C/c2ncc([N+](=O)[O-])n2C)c1 [compound 7, 1-Methyl-2-[(E)-2-(3-methylphenyl)vinyl]-5-nitro-1H-imidazole]	−1.516 ± 0.001 V vs Fc	−0.635 ± 0.003 V vs SCE	–
Cc1cc(C)c(/C=C/c2ncc([N+](=O)[O-])n2C)c(C)c1 [compound 9, 1-Methyl-2-[(E)-2-(2,4,6-trimethylphenyl)vinyl]-5-nitro-1H-imidazole]	−1.529 ± 0.001 V vs Fc	–	E1/2 more positive than Mz [2]: 30–50 mV; IC50 (HeLa cells): 11 µM
Cn1c([N+](=O)[O-])cnc1CCc1ccc(Br)cc1 [compound 42, 2-[2-(4-Bromophenyl)ethyl]-1-methyl-5-nitro-1H-imidazole]	−1.592 ± 0.003 V vs Fc	–	IC50 (HeLa cells): 97.7 µM
2-[(E)-2-(3a,7a-Dihydro-1,3-benzodioxol-5-yl)vinyl]-1-methyl-5-nitro-1H-imidazole [compound 27]	−1.584 ± 0.001 V vs Fc	−0.778 ± 0.002 V vs SCE	selectivity ratio, IC50/EC50 [1]: 1,072; Activity against G. lamblia pEC50 (mean ± SE) ([1]; mean ± SE of average pEC50 of four isolates (WB/C6, GS/M, 106, 713)): 7.16 ± 0.34; toxicity in HeLa cells, pIC50 (mean ± SE) (HeLa cells; 2 days culture, three separate experiments): 4.13 ± 0.10
Cn1c([N+](=O)[O-])cnc1/C=C/c1cccc(I)c1 [compound 18, 2-[(E)-2-(3-Iodophenyl)vinyl]-1-methyl-5-nitro-1H-imidazole]	−1.494 ± 0.004 V vs Fc	–	IC50 (HeLa cells): 31.6 µM
CCOC(OCC)c1ccc(/C=C/c2ncc([N+](=O)[O-])n2C)cc1 [compound 23, 2-{(E)-2-[4-(Diethoxymethyl)phenyl]vinyl}-1-methyl-5-nitro-1H-imidazole]	−1.518 ± 0.003 V vs Fc	–	IC50 (HeLa cells): 97.7 µM
Cn1c([N+](=O)[O-])cnc1/C=C/c1cccc(Br)c1 [compound 11, 2-[(E)-2-(3-Bromophenyl)vinyl]-1-methyl-5-nitro-1H-imidazole]	−1.497 ± 0.005 V vs Fc	–	–
Cn1c([N+](=O)[O-])cnc1/C=C/c1cccs1 [compound 30, 1-Methyl-5-nitro-2-[(E)-2-(2-thienyl)vinyl]-1H-imidazole]	−1.528 ± 0.003 V vs Fc	−0.658 ± 0.001 V vs SCE	selectivity ratio, IC50/EC50 [1]: 1,122
COc1ccc(/C=C/c2ncc([N+](=O)[O-])n2C)c(OC)c1OC [compound 22, 1-Methyl-5-nitro-2-[(E)-2-(2,3,4-trimethoxyphenyl)vinyl]-1H-imidazole]	−1.584 ± 0.005 V vs Fc	−0.757 ± 0.003 V vs SCE	–
Cn1c([N+](=O)[O-])cnc1/C=C/c1cccc(Cl)c1 [compound 14, 2-[(E)-2-(3-Chlorophenyl)vinyl]-1-methyl-5-nitro-1H-imidazole]	−1.492 ± 0.002 V vs Fc	–	–
Cn1c([N+](=O)[O-])cnc1CCc1ccccc1 [compound 40, 1-Methyl-5-nitro-2-(2-phenylethyl)-1H-imidazole]	−1.593 ± 0.002 V vs Fc	–	–
Cn1c([N+](=O)[O-])cnc1C(O)C(O)c1ccc(Br)cc1 (stereo not shown) [compound 35, 1-(4-Bromophenyl)-2-(1-methyl-5-nitro-1H-imidazol-2-yl)-ethane-1,2-diol]	−1.544 ± 0.001 V vs Fc	–	–
